Among the data in PubChem BioAssay AID1259411 (Chemical Carcinogenesis Research Information System (CCRIS), 2018) are carcinogen call values, retold here.

The structures appear in SMILES notation. Activity calls are given as the source filed them. No rule for the calls is given here.

The test system of this data set is rodent carcinogenicity bioassays, tumor incidence. Nature of the data set: CCRIS carcinogenicity studies. The gist of the method:
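NCI-built, expert-reviewed records of carcinogenicity and related test outcomes (mutagenicity, tumor promotion/inhibition) compiled from published and report sources, historical span 1985-2011, not updated.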

As to `COc1ccc([N+](=O)[O-])cc1N=Nc1c(O)c(C(=O)Nc2cccc([N+](=O)[O-])c2)cc2ccccc12`, the carcinogen call runs as follows: (Species: MOUSE, Strain/Sex: B6C3F1/FEMALE, Route: ORAL, Dose: 0, 10000, 25000, 50000 PPM IN DIET FOR 720 D (STUDY DURATION: 104 WK), Dose: 0, 10000, 25000, 50000 PPM IN DIET FOR 720 D (STUDY DURATION: 104 WK)) “inactive; negative”; (Species: MOUSE, Strain/Sex: B6C3F1/MALE, Route: ORAL, Dose: 0, 10000, 25000, 50000 PPM IN DIET FOR 720 D (STUDY DURATION: 104 WK), Dose: 0, 10000, 25000, 50000 PPM IN DIET FOR 720 D (STUDY DURATION: 104 WK)) “inactive; negative”; (Species: RAT, Strain/Sex: F344/FEMALE, Route: ORAL, Dose: 0, 10000, 25000, 50000 PPM IN DIET FOR 720 D (STUDY DURATION: 105 WK), Dose: 0, 10000, 25000, 50000 PPM IN DIET FOR 720 D (STUDY DURATION: 105 WK)) “inactive; negative”; (Species: RAT, Strain/Sex: F344/MALE, Route: ORAL, Dose: 0, 10000, 25000, 50000 PPM IN DIET FOR 103 WK (STUDY DURATION: 105 WK), Dose: 0, 10000, 25000, 50000 PPM IN DIET FOR 103 WK (STUDY DURATION: 105 WK), Tumor Site: Type of Lesion: KIDNEY: RENAL TUBULE ADENOMA OR CARCINOMA, MULTIPLE ORGANS: MONONUCLEAR CELL LEUKEMIA) “equivocal”.

With `CCN(COC(C)=O)N=O`, the carcinogen call is “active; positive” (Species: RAT, Strain/Sex: F344/FEMALE, Route: SUBCUTANEOUS, Dose: 5.5 MG/KG 1/WK FOR 10 WK, Tumor Site: Type of Lesion: INJECTION SITE: MALIGNANT FIBROUS HISTIOCYTOMA, LUNG: ADENOMA, ADENOCARCINOMA, SQUAMOUS CELL CARCINOMA) and “active; positive” (Species: RAT, Strain/Sex: F344/MALE, Route: SUBCUTANEOUS, Dose: 5.5 MG/KG 1/WK FOR 10 WK, Tumor Site: Type of Lesion: INJECTION SITE: MALIGNANT FIBROUS HISTIOCYTOMA, LUNG: ADENOMA, ADENOCARCINOMA, SQUAMOUS CELL CARCINOMA, THYROID GLAND: C, Tumor Site: Type of Lesion: INJECTION SITE: MALIGNANT FIBROUS HISTIOCYTOMA, LUNG: ADENOMA, ADENOCARCINOMA, SQUAMOUS CELL CARCINOMA, THYROID GLAND: C).

For the compound `O=C1NCCN1c1ncc([N+](=O)[O-])s1`, the carcinogen call runs as follows: (Species: HAMSTER, Route: ORAL, Tumor Site: Type of Lesion: FORESTOMACH, URINARY BLADDER) “active; positive”; (Species: MOUSE, Route: ORAL, Tumor Site: Type of Lesion: FORESTOMACH, MAMMARY GLAND, OVARIES, LUNG, URINARY BLADDER, Tumor Site: Type of Lesion: FORESTOMACH, MAMMARY GLAND, OVARIES, LUNG, URINARY BLADDER) “active; positive”.

Take `COC(=O)C1=C(C)NC(C)=C(C(=O)OCC(C)(C)CN(C)Cc2ccccc2)C1c1cc([N+](=O)[O-])ccc1F` (stereo not drawn): the carcinogen call was “inactive; negative” (Species: RAT, Strain/Sex: F344/FEMALE, Route: ORAL, Dose: 0, 0.67, 2, 6 MG/KG/D IN DIET FOR 104 WK (STUDY DURATION: 104 WK), Dose: 0, 0.67, 2, 6 MG/KG/D IN DIET FOR 104 WK (STUDY DURATION: 104 WK)) and “inactive; negative” (Species: RAT, Strain/Sex: F344/MALE, Route: ORAL, Dose: 0, 0.67, 2, 6 MG/KG/D IN DIET FOR 104 WK (STUDY DURATION: 104 WK), Dose: 0, 0.67, 2, 6 MG/KG/D IN DIET FOR 104 WK (STUDY DURATION: 104 WK)).

`CCCCNC(=O)OCC#CI`: the carcinogen call by setting is: (Species: Mouse, Strain/Sex: CD-1/Female (50/Group), Route: Oral, Dose: 0, 20, 50, 150 mg/kg/day of 97% 3-iodo-2-propynyl butyl carbamate in diet for 78 wk, study duration 78 wk, Dose: 0, 20, 50, 150 mg/kg/day of 97% 3-iodo-2-propynyl butyl carbamate in diet for 78 wk, study duration 78 wk) “inactive; negative”; (Species: Mouse, Strain/Sex: CD-1/Male (50/Group), Route: Oral, Dose: 0, 20, 50, 150 mg/kg/day of 97% 3-iodo-2-propynyl butyl carbamate in diet for 78 wk, study duration 78 wk, Dose: 0, 20, 50, 150 mg/kg/day of 97% 3-iodo-2-propynyl butyl carbamate in diet for 78 wk, study duration 78 wk) “inactive; negative”; (Species: Rat, Strain/Sex: Sprague-Dawley/Female (50/group), Route: Oral, Dose: 0, 20, 40, 80 mg/kg/day of 97% 3-iodo-2-propynyl butyl carbamate in diet for 104 wk, study duration 104 wk, Dose: 0, 20, 40, 80 mg/kg/day of 97% 3-iodo-2-propynyl butyl carbamate in diet for 104 wk, study duration 104 wk) “inactive; negative”; (Species: Rat, Strain/Sex: Sprague-Dawley/Male (50/group), Route: Oral, Dose: 0, 20, 40, 80 mg/kg/day of 97% 3-iodo-2-propynyl butyl carbamate in diet for 104 wk, study duration 104 wk, Dose: 0, 20, 40, 80 mg/kg/day of 97% 3-iodo-2-propynyl butyl carbamate in diet for 104 wk, study duration 104 wk) “inactive; negative”.

As to `OCc1ccco1`, the carcinogen call is “inactive; negative” (Species: MOUSE, Strain/Sex: B6C3F1/FEMALE, Route: INHALATION, Dose: 0, 2, 8, 32 PPM 6 HR/D 5 D/WK FOR 105 WK (STUDY DURATION: 105 WK), Dose: 0, 2, 8, 32 PPM 6 HR/D 5 D/WK FOR 105 WK (STUDY DURATION: 105 WK)); “active; positive” (Species: MOUSE, Strain/Sex: B6C3F1/MALE, Route: INHALATION, Dose: 0, 2, 8, 32 PPM 6 HR/D 5 D/WK FOR 105 WK (STUDY DURATION: 105 WK), Dose: 0, 2, 8, 32 PPM 6 HR/D 5 D/WK FOR 105 WK (STUDY DURATION: 105 WK), Tumor Site: Type of Lesion: KIDNEY: RENAL TUBULE ADENOMA, CARCINOMA); “equivocal” (Species: RAT, Strain/Sex: F344/FEMALE, Route: INHALATION, Dose: 0, 2, 8, 32 PPM 6 HR/D 5 D/WK FOR 105 WK (STUDY DURATION: 105 WK), Dose: 0, 2, 8, 32 PPM 6 HR/D 5 D/WK FOR 105 WK (STUDY DURATION: 105 WK), Tumor Site: Type of Lesion: NOSE: LATERAL WALL, ADENOMA, RESPIRATORY EPITHELIUM ADENOMA, KIDNEY (RENAL TUBULE): ADENOMA, CARCINOMA, ADENOMA OR CARCI); “active; positive” (Species: RAT, Strain/Sex: F344/MALE, Route: INHALATION, Dose: 0, 2, 8, 32 PPM 6 HR/D 5 D/WK FOR 105 WK (STUDY DURATION: 105 WK), Dose: 0, 2, 8, 32 PPM 6 HR/D 5 D/WK FOR 105 WK (STUDY DURATION: 105 WK), Tumor Site: Type of Lesion: NOSE: ADENOMA, CARCINOMA, OR SQUAMOUS CELL CARCINOMA).

As for `CCc1cc(C(N)=S)ccn1`, the carcinogen call by setting is: (Species: MOUSE, Route: ORAL, Tumor Site: Type of Lesion: THYROID GLAND) “active; positive”; (Species: MOUSE, Strain/Sex: B6C3F1/FEMALE, Route: ORAL, Dose: 0, 1000, 2000 PPM IN DIET, Dose: 0, 1000, 2000 PPM IN DIET) “inactive; negative”; (Species: MOUSE, Strain/Sex: B6C3F1/MALE, Route: ORAL, Dose: 0, 1000, 2000 PPM IN DIET, Dose: 0, 1000, 2000 PPM IN DIET) “inactive; negative”; (Species: RAT, Strain/Sex: F344/FEMALE, Route: ORAL, Dose: 0, 1500, 3000 PPM IN DIET, Dose: 0, 1500, 3000 PPM IN DIET) “inactive; negative”; (Species: RAT, Strain/Sex: F344/MALE, Route: ORAL, Dose: 0, 1500, 3000 PPM IN DIET, Dose: 0, 1500, 3000 PPM IN DIET) “inactive; negative”.

Regarding `CCC(=O)N(O)c1ccc(-c2ccccc2)cc1`, the carcinogen call (Species: RAT, Strain/Sex: STRAIN-CD/FEMALE, Route: INTRAPERITONEAL, Dose: 0, 100 UMOL/KG BW 2/WK FOR 6 WK (STUDY DURATION: 62 WK)) is “inactive; negative”.

Turning to `CCOC(OCC)C(=O)c1ccccc1`, the carcinogen call (Species: MOUSE, Strain/Sex: C3H/HEJ/MALE, Route: DERMAL, Dose: 0, 11.3 MG AS A 50% DILUTION IN ACETONE 3/WK FOR LIFESPAN (STUDY DURATION: LIFESPAN)) was “inactive; negative” and the carcinogen call (Species: MOUSE, Strain/Sex: C3H/HEJ/MALE, Route: DERMAL, Dose: 0, 25 MG UNDILUTED 3/WK FOR LIFESPAN (STUDY DURATION: LIFESPAN)) was “inactive; negative”.

Consider `Oc1ccc(O)c(-c2ccccc2)c1`, for which the carcinogen call was “inactive; negative” (Species: MOUSE, Strain/Sex: CD-1/FEMALE, Route: DERMAL, Dose: 0, 10 MG IN DMSO 5 D/WK FOR 40 WK (STUDY DURATION: 40 WK)) and “inactive; negative” (Species: RAT, Strain/Sex: F344/FEMALE, Route: INTRAVESICULAR, Dose: 0, 1% IN 0.2 ML SALINE 2/WK FOR 5 WK (STUDY DURATION: 36 WK)).
